Measured values: patent US20180344725A1, “QUINOLONE CHALCONE COMPOUNDS AND USES THEREOF” (priority 2015, published 2018)

Tests used:
MDA-MB-231 = test: Immunofluorescent staining: centrosomes and chromosome segregation; format: cell-based, human; conditions: for ACS (abnormal chromosome segregation) / Monopolar centrosome: MDA-MB-231, 3 μM
Description: (§1) Cells on coverslips placed on the bottom of 35 mm tissue culture plates or 6-well clustered dishes were treated for 12-24 hours with the CTR compounds to be tested. Subsequently, the cells were fixed with 100% methanol for 15 minutes and washed with 1×PBS three times. Cells were then “blocked” with 3% BSA or 1% (v/v) FBS plus 1×PBST (1×PBS buffer containing 0.1% (v/v) Triton X-100 or 0.2% Tween 20), and incubated overnight at 4° C. with primary antibodies, with gentle agitation. Unbound primary antibodies were washed off with PBST, and a secondary antibody was added for 1 hour in the dark. Secondary antibodies were conjugated to Alexa 488 or 568. DNA was counterstained with DRAQ5 or DAPI. Subsequently, coverslips were washed three times with 1×PBST for 10 minutes each, followed by mounting them onto slides with 90% glycerol in 1×PBS. Each slide was visualized with a Carl Zeiss 510 Meta laser scanning microscope or an Axioscope. Image analysis was done with an LSM image examiner equipped with the microscopes (Carl Zeiss, Toronto, ON, Canada).
(§2) The cancer-specific increase of mitotic cells in response to CTR-17 was correlated with the accumulation of cells with monopolar centrosomes and abnormal chromosome alignment/segregation (FIG. 11, Table 5). Cells were either sham-treated or treated with 3.0 μM CTR-17 for 12 hours or 24 hours, followed by analyses of cell cycle progression, centrosome abnormalities, and chromosome alignment/segregation. […] The mitotic index was determined by fluorescence microscopic analysis of at least 200 cells for each cell type, and data was expressed as percentage mean±S.E.M. of at least two independent experiments.
Asynchronously growing cells were treated with 1 μM CTR-20 for 24 hours, followed by examining cells arrested in mitosis. The percentage of mitotic cells was calculated based on the examination of at least 250-400 cells. Cells treated with 1 μM CTR-20 for 24 hours on coverslips were fixed with ice-cold methanol, immunostained with an α-tubulin antibody, and then counterstained DNA with DRAQ5 prior to observing by florescent microscopy (Table 6). […] Similarly, cells treated with 1 μM CTR-20 accumulated monopolar centrosomes and defective chromosomal alignment and segregation in a cancer-specific manner.

HEK293T = test: as above; format: cell-based; conditions: 3 μM
Description: as §1, §2

HeLa cells = test: EdU incorporation (DNA replication); format: cell-based; conditions: 3.0 μM for 24 hours; sham control 25.4%
Description: CTR-17 caused neither impediment of DNA replication nor DNA damage. […] The detection of EdU incorporated into DNA was carried out by fluorescence microscopy. […] Etoposide (50.0 μM) was used as a positive control.

MDA-MB-468 = test: Immunofluorescent staining: centrosomes and chromosome segregation; format: cell-based, human; conditions: 3 μM
Description: as §1, §2

MCF-7 = test: as above; format: cell-based, human; conditions: 1 μM, 24 hours
Description: as §1
Asynchronously growing cells were treated with 1 μM CTR-20 for 24 hours, followed by examining cells arrested in mitosis. The percentage of mitotic cells was calculated based on the examination of at least 250-400 cells. […]

NCI-60 cancer cell lines = test: NCI-60 cancer panel SRB screening; format: cell-based; conditions: 10 μM, 48 hours
Description: Ten μM of CTR-20 was used to examine the drug's efficacy against the NCI-60 cancer cell lines including: six leukemia cell lines, nine non-small cell lung cancer cell lines, seven colorectal cancer cell lines, six CNS cancer cell lines, nine melanoma cell lines, seven ovarian cancer cell lines, seven renal cancer cell lines, two prostate cancer cell lines and six breast cancer cell lines. Screening method was carried out by a sulforhodamine B (SRB) colorimetric assay.

ANBL6-BR = test: Antiproliferation, bortezomib-resistant cells; format: cell-based; conditions: ANBL6-BR (bortezomib-resistant multiple myeloma)
Description: All of the cell lines used were purchased from ATCC and cultured in RPMI-1640 supplemented with 10% fetal bovine serum and antibiotics (100 units penicillin/100 μg/ml streptomycin), unless stated otherwise. 1845B5 and MCF-10A non-cancer breast cell lines were cultured in DME/F12 medium supplemented with 10% fetal bovine serum, antibiotics and growth factors. […] The human small cell lung carcinoma H69 cell line and its multidrug-resistant MRP1-overexpressing isogenic H69AR cell line were purchased from ATCC. […] H69 cells grow as large multi-cell aggregates, making it difficult to accurately count cell numbers. […] The IL-6 dependent bortezomib-resistant ANBL6-BR cell line was further supplemented with 1 ng/ml of IL-6. The MCF10AT1 and MCF10CA1a cell lines are isogenic to the MCF10A cell line, and obtained from Dr. Valerie Weaver at the Center for Bioengineering and Tissue Regeneration, UCSF, CA, USA. […] Cell growth (inhibition) was calculated by the following formula: % cells proliferation=[(AT-CT)/(ST-CT)]×100 wherein AT=absorbance of treated cells, CT=absorbance of negative control cells, and ST=absorbance of sham treated cells. […] The combinational index (CI) was calculated as described previously (Chou 2006). […] CI values were determined from four independent experiments.

COc1ccccc1C(=O)/C=C/c1cc2ccccc2[nH]c1=O [CTR-17, (E)-3-(3-(2-Methoxyphenyl)-3-oxoprop-1-enyl)quinolin-2(1H)-one]
ACS (abnormal chromosome segregation) (MDA-MB-231; 12 h post-treatment): 60.0 ± 10.2% of total mitotic cells | Monopolar centrosome (MDA-MB-231; 12 h post-treatment): 40.0 ± 10.2% of total mitotic cells | ACS (abnormal chromosome segregation) (MDA-MB-231; 24 h post-treatment): 55.1 ± 5.7% of total mitotic cells | Monopolar centrosome (MDA-MB-231; 24 h post-treatment): 44.9 ± 5.7% of total mitotic cells | ACS (abnormal chromosome segregation) (HEK293T; 12 h post-treatment): 48.2 ± 10.1% of total mitotic cells | Monopolar centrosome (HEK293T; 12 h post-treatment): 50.5 ± 10.1% of total mitotic cells | ACS (abnormal chromosome segregation) (HEK293T; 24 h post-treatment): 0.1 ± 0.0% of total mitotic cells | Monopolar centrosome (HEK293T; 24 h post-treatment): 93.2 ± 3.4% of total mitotic cells | EdU positive cells (HeLa cells): 22.0% | ACS (abnormal chromosome segregation) (MDA-MB-468; 12 h post-treatment): 44.7 ± 8.9% of total mitotic cells | Monopolar centrosome (MDA-MB-468; 12 h post-treatment): 55.3 ± 8.9% of total mitotic cells | ACS (abnormal chromosome segregation) (MDA-MB-468; 24 h post-treatment): 24.0 ± 5.9% of total mitotic cells | Monopolar centrosome (MDA-MB-468; 24 h post-treatment): 76.0 ± 5.9% of total mitotic cells

COc1ccc2[nH]c(=O)c(/C=C/C(=O)c3ccccc3OC)cc2c1 [CTR-20, (E)-6-Methoxy-3-(3-(2-methoxyphenyl)-3-oxoprop-1-enyl) quinolin-2(1H)-one]
ACA/S (%) (abnormal chromosome alignment and segregation) (MCF-7): 29.01 ± 2.50% | Monopolar (%) (MCF-7): 62.41 ± 2.99% | ACA/S (%) (abnormal chromosome alignment and segregation) (MDA-MB-231; MB231, 1 μM, 24 hours): 58.05 ± 6.21% | Monopolar (%) (MDA-MB-231; MB231, 1 μM, 24 hours): 35.73 ± 5.59% | cell survival (range over cell lines) (NCI-60 cancer cell lines; nine melanomas): −10.05 to +50.45% | cell survival (range over cell lines) (NCI-60 cancer cell lines; nine non-small cell lung cancer cell lines): −11.97 to 38.93% | cell survival (range over cell lines) (NCI-60 cancer cell lines; seven colorectal cancer cell lines): +4.37 to +23.11% | cell survival (range over cell lines) (NCI-60 cancer cell lines; seven ovarian cancer cell lines): +1.18 to +50.80% | cell survival (range over cell lines) (NCI-60 cancer cell lines; seven renal cancer cell lines): −7.90 to +42.01% | cell survival (range over cell lines) (NCI-60 cancer cell lines; six breast cancer cell lines): −2.02 to +18.91% | cell survival (range over cell lines) (NCI-60 cancer cell lines; six leukemia cell lines): −2.46 to +10.88% | cell survival (range over cell lines) (NCI-60 cancer cell lines; two prostate cancer cell lines): +10.76 to +22.06% | IC50 (ANBL6-BR): 760 ± 280 nM
